From US20040009485A1, “Cellular arrays for the identification of altered gene expression” (priority 2002, published 2004)

System: LuxArray 1.04 E. coli strains (luxCDABE gene fusions)
Assay: LuxArray 1.04 limonene stress of the reporter array in liquid culture
Type: cell-based
Settings: 80% saturated limonene in LB
Procedure: Microplates from −80° C. containing the LuxArray 1.04 E. coli strains were thawed and used to inoculate 100 μl LB medium supplemented with 100 μg/ml ampicillin in Costar#3595 flat bottomed 96-well microplates. Following overnight growth at 37° C., the plates were visually examined and any wells with little or no turbidity were recorded. Then these cultures were diluted by transfer of 15 μl to 135 μl LB medium in Costar #3595, flat bottom 96-well microplates and were moderately swirl shaken on an IKA Schuttler MTS 4 shaker at setting 400 for two hrs at 37° C. in a humidified box. Twenty μl of each these actively growing cultures were transferred to the corresponding well in sets of three microplates, one containing 80 μl of LB medium, another containing 80 μl of LB medium saturated with limonene at room temperature, and the third containing 40 μl of LB medium saturated with limonene and 40 μl of LB medium. An initial (zero time) reading was taken using an MLX microplate luminometer (Dynex) pre-warmed to 37° C. Then the plates were placed at 37° C. without shaking. Additional bioluminescent measurements were taken at 45, 90, and 135 minutes. To limit the number of microplates handled each day, LuxArray 1.04 microplates 1 to 5, microplates 6 to 10, microplates 11 to 15, and microplates […] were used on each of four different days.
The data were normalized to correct for growth-inhibition caused by limonene on the basis of each individual day that data was collected. The bioluminescence (RLU) of each individual culture for each day of experimentation under each of the three conditions, were added to determine the daily array total RLU. These were used to find a daily normalization factor (DNF) as follows:
DNF=Daily total array signal(time zero, LB control)/Daily total array signal(time x, condition y)
Each measurement from the corresponding day, time point, and condition was multiplied by DNF to yield a normalized signal. The data from wells that were scored to have little or no growth were not used in further analysis. The normalized data were analyzed with GeneSpring (Silicon Genetics) software, which averaged the signal from each of the duplicate cultures for each reporter gene fusion.
Thus, patterns of gene expression from the 80% saturated limonene in LB medium were further examined. […] These lists were examined and gene fusions with very low normalized RLU values (<0.012 RLU) at all conditions were eliminated. […] The designation of “>2X” is given for upregulation while “*” is listed if the expression was less than 2 fold increased. At 45 minutes, the expression of fourteen gene fusions was increased; none of these was increased 3 fold or higher. At 90 minutes, 37 gene fusions were induced; these included all but one of the gene fusions observed at 45 minutes. […] These were fusions of the luxCDABE reporter to the promoter regions of uhpT (3.8×), nirB (3.7×) and narK (3.6×). At 135 minutes, 39 gene fusions were induced, which included 13 fusions not observed at 45 or 90 minutes.

## C=C(C)[C@H]1CC=C(C)CC1 [limonene]
b2451 fusion, 135 minutes
  upregulation of gene fusion: >2X (The designation of “>2X” is given for upregulation)
b2550 fusion, 45 minutes
  upregulation of gene fusion: * (“*” is listed if the expression was less than 2 fold increased)
b2550 fusion, 90 minutes
  upregulation of gene fusion: >2X (The designation of “>2X” is given for upregulation)
b2550 fusion, 135 minutes
  upregulation of gene fusion: * (“*” is listed if the expression was less than 2 fold increased)
b2699 (recA) fusion, 45 minutes
  upregulation of gene fusion: * (“*” is listed if the expression was less than 2 fold increased)
b2699 (recA) fusion, 90 minutes
  upregulation of gene fusion: >2X (The designation of “>2X” is given for upregulation)
b2699 (recA) fusion, 135 minutes
  upregulation of gene fusion: >2X (The designation of “>2X” is given for upregulation)
b2999 fusion, 45 minutes
  upregulation of gene fusion: >2X (The designation of “>2X” is given for upregulation)
b2999 fusion, 90 minutes
  upregulation of gene fusion: * (“*” is listed if the expression was less than 2 fold increased)
b2999 fusion, 135 minutes
  upregulation of gene fusion: * (“*” is listed if the expression was less than 2 fold increased)
b3012 fusion, 45 minutes
  upregulation of gene fusion: >2X (The designation of “>2X” is given for upregulation)
b3012 fusion, 90 minutes
  upregulation of gene fusion: >2X (The designation of “>2X” is given for upregulation)
b3012 fusion, 135 minutes
  upregulation of gene fusion: >2X (The designation of “>2X” is given for upregulation)
b3245 fusion, 45 minutes
  upregulation of gene fusion: * (“*” is listed if the expression was less than 2 fold increased)
b3245 fusion, 90 minutes
  upregulation of gene fusion: >2X (The designation of “>2X” is given for upregulation)
b3245 fusion, 135 minutes
  upregulation of gene fusion: >2X (The designation of “>2X” is given for upregulation)
b3267 (yhdV) fusion, 45 minutes
  upregulation of gene fusion: * (“*” is listed if the expression was less than 2 fold increased)
b3267 (yhdV) fusion, 90 minutes
  upregulation of gene fusion: >2X (The designation of “>2X” is given for upregulation)
b3267 (yhdV) fusion, 135 minutes
  upregulation of gene fusion: >2X (The designation of “>2X” is given for upregulation)
b3336 (bfr) fusion, 45 minutes
  upregulation of gene fusion: * (“*” is listed if the expression was less than 2 fold increased)
b3336 (bfr) fusion, 90 minutes
  upregulation of gene fusion: >2X (The designation of “>2X” is given for upregulation)
b3336 (bfr) fusion, 135 minutes
  upregulation of gene fusion: * (“*” is listed if the expression was less than 2 fold increased)
b3365 (nirB) fusion, 45 minutes
  upregulation of gene fusion: * (“*” is listed if the expression was less than 2 fold increased)
b3365 (nirB) fusion, 90 minutes
  upregulation of gene fusion: >2X (The designation of “>2X” is given for upregulation)
b3365 (nirB) fusion, 135 minutes
  upregulation of gene fusion: >2X (The designation of “>2X” is given for upregulation)
b3419 (yhgJ) fusion, 45 minutes
  upregulation of gene fusion: * (“*” is listed if the expression was less than 2 fold increased)
b3419 (yhgJ) fusion, 90 minutes
  upregulation of gene fusion: >2X (The designation of “>2X” is given for upregulation)
b3419 (yhgJ) fusion, 135 minutes
  upregulation of gene fusion: >2X (The designation of “>2X” is given for upregulation)
b3666 (uhpT) fusion, 45 minutes
  upregulation of gene fusion: * (“*” is listed if the expression was less than 2 fold increased)
b3666 (uhpT) fusion, 90 minutes
  upregulation of gene fusion: >2X (The designation of “>2X” is given for upregulation)
b3666 (uhpT) fusion, 135 minutes
  upregulation of gene fusion: >2X (The designation of “>2X” is given for upregulation)
b3904 (rhaB) fusion, 45 minutes
  upregulation of gene fusion: >2X (The designation of “>2X” is given for upregulation)
b3904 (rhaB) fusion, 90 minutes
  upregulation of gene fusion: >2X (The designation of “>2X” is given for upregulation)
b3904 (rhaB) fusion, 135 minutes
  upregulation of gene fusion: >2X (The designation of “>2X” is given for upregulation)
b3942 (katG) fusion, 45 minutes
  upregulation of gene fusion: * (“*” is listed if the expression was less than 2 fold increased)
b3942 (katG) fusion, 90 minutes
  upregulation of gene fusion: >2X (The designation of “>2X” is given for upregulation)
b3942 (katG) fusion, 135 minutes
  upregulation of gene fusion: >2X (The designation of “>2X” is given for upregulation)
b4043 (lexA) fusion, 45 minutes
  upregulation of gene fusion: * (“*” is listed if the expression was less than 2 fold increased)
b4043 (lexA) fusion, 90 minutes
  upregulation of gene fusion: >2X (The designation of “>2X” is given for upregulation)
b4043 (lexA) fusion, 135 minutes
  upregulation of gene fusion: * (“*” is listed if the expression was less than 2 fold increased)
b4106 (phnC) fusion, 45 minutes
  upregulation of gene fusion: >2X (The designation of “>2X” is given for upregulation)
b4106 (phnC) fusion, 90 minutes
  upregulation of gene fusion: >2X (The designation of “>2X” is given for upregulation)
b4106 (phnC) fusion, 135 minutes
  upregulation of gene fusion: >2X (The designation of “>2X” is given for upregulation)
b4264 (yjgS) fusion, 45 minutes
  upregulation of gene fusion: * (“*” is listed if the expression was less than 2 fold increased)
b4264 (yjgS) fusion, 90 minutes
  upregulation of gene fusion: >2X (The designation of “>2X” is given for upregulation)
b4264 (yjgS) fusion, 135 minutes
  upregulation of gene fusion: * (“*” is listed if the expression was less than 2 fold increased)
b4392 (slt) fusion, 45 minutes
  upregulation of gene fusion: >2X (The designation of “>2X” is given for upregulation)
b4392 (slt) fusion, 90 minutes
  upregulation of gene fusion: >2X (The designation of “>2X” is given for upregulation)
b4392 (slt) fusion, 135 minutes
  upregulation of gene fusion: * (“*” is listed if the expression was less than 2 fold increased)
katG promoter fusion, 135 minutes
  upregulation of gene fusion (fold): 4.1 ×
narK promoter fusion, 90 minutes
  upregulation of gene fusion (fold): 3.6 ×
nirB promoter fusion, 90 minutes
  upregulation of gene fusion (fold): 3.7 ×
nirB promoter fusion, 135 minutes
  upregulation of gene fusion (fold): 4.1 ×
uhpT promoter fusion, 90 minutes
  upregulation of gene fusion (fold): 3.8 ×
uhpT promoter fusion, 135 minutes
  upregulation of gene fusion (fold): 7.7 ×
